Tests used:
[1] = target: T1, DrTS (trehalose synthase) (Deinococcus radiodurans, UniProt I3NX86); test: isomerase assay (trehalose from maltose), HPLC with refractive-index detection; type: biochemical
T1 construct: full length, about 552 residues plus vector linkers (residues 1-5 disordered); pET-23a(+), Ni-NTA purified, E. coli BL21 (DE3); homodimer
T1 sequence (I3NX86 1-552): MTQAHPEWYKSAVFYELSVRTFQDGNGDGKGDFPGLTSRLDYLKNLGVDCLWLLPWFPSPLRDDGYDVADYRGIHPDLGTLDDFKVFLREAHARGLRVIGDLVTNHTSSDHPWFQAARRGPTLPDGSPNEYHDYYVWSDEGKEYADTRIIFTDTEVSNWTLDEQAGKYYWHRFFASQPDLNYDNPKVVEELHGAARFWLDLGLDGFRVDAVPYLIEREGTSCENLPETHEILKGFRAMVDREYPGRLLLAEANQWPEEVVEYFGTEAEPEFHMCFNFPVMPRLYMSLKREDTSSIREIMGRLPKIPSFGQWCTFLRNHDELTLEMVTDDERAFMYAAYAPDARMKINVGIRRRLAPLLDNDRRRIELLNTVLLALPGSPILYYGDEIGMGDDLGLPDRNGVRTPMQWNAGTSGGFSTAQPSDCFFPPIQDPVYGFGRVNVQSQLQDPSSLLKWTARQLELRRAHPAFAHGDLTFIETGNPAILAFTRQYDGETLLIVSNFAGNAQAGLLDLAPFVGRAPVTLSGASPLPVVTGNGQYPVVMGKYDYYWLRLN

[2] = target: Deinococcus radiodurans trehalose synthase, wild type (Deinococcus radiodurans); test: AUC; sedimentation velocity, 293 K, 42 000 rev/min; enzyme 0.1 mg/ml in 20 mM Tris-HCl pH 7.5, 100 mM NaCl; c(s) distribution with SEDFIT

IC50 [1] [mM] | stoichiometry N [2] | Molecule
4.88 |  | NC(CO)(CO)CO [Tris]
 | 2 | Deinococcus radiodurans trehalose synthase, wild type (enzyme)

— paper PMC4257617, “Structures of trehalose synthase from Deinococcus radiodurans reveal that a closed conformation is involved in catalysis of the intramolecular isomerization” (Acta Crystallographica Section D: Biological Crystallography, 2014)
